Experimental data as given in ChEMBL document CHEMBL3826970, “Design, synthesis, anti-tumor activity, and molecular modeling of quinazoline and pyrido[2,3-d]pyrimidine derivatives targeting epidermal growth factor receptor” (Eur J Med Chem, 2016).

Key:
MCF7 = test: cells; format: functional, cell-based; conditions: Homo sapiens, MCF7, 72 h;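 further: antiproliferative effect quantified with an MTT readout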
A549 = test: cells; format: functional, cell-based; conditions: Homo sapiens, A549, 72 h;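 further: antiproliferative effect read out by MTT assay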
Description: Antiproliferative activity against human A549 cells after 72 hrs by MTT assay

[1] = Antiproliferative activity against human BT474 cells after 72 hrs by MTT assay; format: functional, cell-based; conditions: BT-474, 72 h
SK-BR-3 = test: cells; format: functional, cell-based; conditions: Homo sapiens, SK-BR-3, 72 h;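 further: antiproliferative effect determined with an MTT read-out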
Description: Antiproliferative activity against human SK-BR-3 cells after 72 hrs by MTT assay

MDA-MB-231 = test: cells; format: functional, cell-based; conditions: Homo sapiens, MDA-MB-231, 72 h;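 further: antiproliferative effect read out with the MTT assay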
[2] = target: T1, Epidermal growth factor receptor (Homo sapiens, UniProt P00533); conditions: at 1 µM
[3] = target: T1, Epidermal growth factor receptor
Description: Inhibition of cytoplasmic GST-tagged human recombinant EGFR expressed in baculovirus system by z-lyte assay

[4] = target: Epidermal growth factor receptor (Homo sapiens, UniProt P00533, L858R)
Description: Inhibition of cytoplasmic GST-tagged human recombinant EGFR L858R mutant expressed in baculovirus system by z-lyte assay

[5] = target: Epidermal growth factor receptor (Homo sapiens, UniProt P00533, L858R/T790M); test: Inhibition of cytoplasmic GST-tagged human recombinant EGFR L858R/T790M double mutant (668-1210 residues) expressed in baculovirus system by z-lyte assay
[6] = target: Receptor tyrosine-protein kinase erbB-2 (Homo sapiens, UniProt P04626); test: Inhibition of cytoplasmic His-tagged human ErbB2 expressed in baculovirus system by z-lyte assay
[7] = target: Receptor tyrosine-protein kinase erbB-4 (Homo sapiens, UniProt Q15303); test: Inhibition of cytoplasmic GST-tagged human ErbB4 expressed in baculovirus system by z-lyte assay
Receptor tyrosine-protein kinase erbB-4, sequence (Q15303 whole entry): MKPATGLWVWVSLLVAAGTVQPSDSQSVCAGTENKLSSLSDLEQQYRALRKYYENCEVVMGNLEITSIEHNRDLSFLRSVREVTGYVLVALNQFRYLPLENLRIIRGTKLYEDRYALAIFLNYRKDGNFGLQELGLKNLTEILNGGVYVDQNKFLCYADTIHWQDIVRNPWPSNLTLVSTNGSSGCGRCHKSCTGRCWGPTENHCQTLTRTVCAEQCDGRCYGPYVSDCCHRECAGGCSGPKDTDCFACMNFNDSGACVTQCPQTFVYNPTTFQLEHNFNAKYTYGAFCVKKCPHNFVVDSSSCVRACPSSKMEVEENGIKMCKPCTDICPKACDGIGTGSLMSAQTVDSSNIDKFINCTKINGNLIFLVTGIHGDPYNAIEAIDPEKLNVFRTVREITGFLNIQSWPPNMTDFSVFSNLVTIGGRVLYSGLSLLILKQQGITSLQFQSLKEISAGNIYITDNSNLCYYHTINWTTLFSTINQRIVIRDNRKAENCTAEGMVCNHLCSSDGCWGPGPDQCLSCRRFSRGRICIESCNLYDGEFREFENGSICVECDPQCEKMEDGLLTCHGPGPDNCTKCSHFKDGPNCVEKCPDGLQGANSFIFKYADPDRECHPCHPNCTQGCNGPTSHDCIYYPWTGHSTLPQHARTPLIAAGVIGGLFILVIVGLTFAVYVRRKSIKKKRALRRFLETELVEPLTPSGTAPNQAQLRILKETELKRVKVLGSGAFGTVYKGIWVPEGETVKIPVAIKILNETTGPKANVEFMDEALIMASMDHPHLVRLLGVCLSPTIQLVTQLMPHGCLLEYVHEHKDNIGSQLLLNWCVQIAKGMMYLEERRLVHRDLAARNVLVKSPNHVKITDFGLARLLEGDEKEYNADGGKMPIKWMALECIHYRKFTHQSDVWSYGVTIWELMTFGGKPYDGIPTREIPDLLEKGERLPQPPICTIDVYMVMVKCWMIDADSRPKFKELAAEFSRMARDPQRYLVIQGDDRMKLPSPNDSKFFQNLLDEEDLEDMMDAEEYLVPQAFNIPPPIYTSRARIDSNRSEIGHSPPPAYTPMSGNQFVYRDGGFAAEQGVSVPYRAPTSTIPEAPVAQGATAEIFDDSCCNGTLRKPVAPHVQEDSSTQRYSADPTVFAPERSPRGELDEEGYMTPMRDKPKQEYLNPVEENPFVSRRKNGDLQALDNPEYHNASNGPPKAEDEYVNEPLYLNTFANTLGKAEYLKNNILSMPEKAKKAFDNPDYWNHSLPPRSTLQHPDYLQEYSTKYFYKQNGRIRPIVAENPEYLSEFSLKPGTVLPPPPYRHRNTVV

Epidermal growth factor receptor (Homo sapiens, UniProt P00533, L858R/T790M), sequence (P00533 25-1210 T790M/L858R limits assumed): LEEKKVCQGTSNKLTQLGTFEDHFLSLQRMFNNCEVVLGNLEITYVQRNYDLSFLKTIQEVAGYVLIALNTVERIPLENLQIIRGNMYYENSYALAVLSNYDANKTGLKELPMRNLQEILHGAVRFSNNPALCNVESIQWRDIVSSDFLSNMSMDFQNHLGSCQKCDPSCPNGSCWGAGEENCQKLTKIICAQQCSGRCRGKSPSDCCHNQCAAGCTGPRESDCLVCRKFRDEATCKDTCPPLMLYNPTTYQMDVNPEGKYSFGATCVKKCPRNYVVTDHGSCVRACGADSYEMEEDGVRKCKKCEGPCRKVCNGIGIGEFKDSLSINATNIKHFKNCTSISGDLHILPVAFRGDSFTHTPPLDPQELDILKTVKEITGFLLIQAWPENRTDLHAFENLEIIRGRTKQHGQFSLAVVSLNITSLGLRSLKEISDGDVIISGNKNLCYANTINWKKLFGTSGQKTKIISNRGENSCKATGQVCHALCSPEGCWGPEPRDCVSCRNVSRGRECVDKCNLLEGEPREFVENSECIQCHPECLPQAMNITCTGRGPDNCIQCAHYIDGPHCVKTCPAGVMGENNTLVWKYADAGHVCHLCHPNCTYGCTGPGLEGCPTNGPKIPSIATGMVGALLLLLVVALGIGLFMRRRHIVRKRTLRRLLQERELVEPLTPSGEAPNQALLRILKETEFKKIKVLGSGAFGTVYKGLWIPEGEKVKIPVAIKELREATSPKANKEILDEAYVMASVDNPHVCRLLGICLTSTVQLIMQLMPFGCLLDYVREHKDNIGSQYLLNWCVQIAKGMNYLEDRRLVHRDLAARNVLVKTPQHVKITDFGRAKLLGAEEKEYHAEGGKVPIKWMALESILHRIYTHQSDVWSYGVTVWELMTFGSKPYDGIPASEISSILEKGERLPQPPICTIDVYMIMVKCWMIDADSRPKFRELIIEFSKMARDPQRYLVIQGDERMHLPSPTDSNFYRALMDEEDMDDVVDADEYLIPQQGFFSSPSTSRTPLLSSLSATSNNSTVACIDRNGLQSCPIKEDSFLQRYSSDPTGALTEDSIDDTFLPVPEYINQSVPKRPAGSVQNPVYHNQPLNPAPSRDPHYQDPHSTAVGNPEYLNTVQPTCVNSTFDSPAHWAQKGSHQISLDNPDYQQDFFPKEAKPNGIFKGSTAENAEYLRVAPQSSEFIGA
T1 sequence (P00533 whole entry): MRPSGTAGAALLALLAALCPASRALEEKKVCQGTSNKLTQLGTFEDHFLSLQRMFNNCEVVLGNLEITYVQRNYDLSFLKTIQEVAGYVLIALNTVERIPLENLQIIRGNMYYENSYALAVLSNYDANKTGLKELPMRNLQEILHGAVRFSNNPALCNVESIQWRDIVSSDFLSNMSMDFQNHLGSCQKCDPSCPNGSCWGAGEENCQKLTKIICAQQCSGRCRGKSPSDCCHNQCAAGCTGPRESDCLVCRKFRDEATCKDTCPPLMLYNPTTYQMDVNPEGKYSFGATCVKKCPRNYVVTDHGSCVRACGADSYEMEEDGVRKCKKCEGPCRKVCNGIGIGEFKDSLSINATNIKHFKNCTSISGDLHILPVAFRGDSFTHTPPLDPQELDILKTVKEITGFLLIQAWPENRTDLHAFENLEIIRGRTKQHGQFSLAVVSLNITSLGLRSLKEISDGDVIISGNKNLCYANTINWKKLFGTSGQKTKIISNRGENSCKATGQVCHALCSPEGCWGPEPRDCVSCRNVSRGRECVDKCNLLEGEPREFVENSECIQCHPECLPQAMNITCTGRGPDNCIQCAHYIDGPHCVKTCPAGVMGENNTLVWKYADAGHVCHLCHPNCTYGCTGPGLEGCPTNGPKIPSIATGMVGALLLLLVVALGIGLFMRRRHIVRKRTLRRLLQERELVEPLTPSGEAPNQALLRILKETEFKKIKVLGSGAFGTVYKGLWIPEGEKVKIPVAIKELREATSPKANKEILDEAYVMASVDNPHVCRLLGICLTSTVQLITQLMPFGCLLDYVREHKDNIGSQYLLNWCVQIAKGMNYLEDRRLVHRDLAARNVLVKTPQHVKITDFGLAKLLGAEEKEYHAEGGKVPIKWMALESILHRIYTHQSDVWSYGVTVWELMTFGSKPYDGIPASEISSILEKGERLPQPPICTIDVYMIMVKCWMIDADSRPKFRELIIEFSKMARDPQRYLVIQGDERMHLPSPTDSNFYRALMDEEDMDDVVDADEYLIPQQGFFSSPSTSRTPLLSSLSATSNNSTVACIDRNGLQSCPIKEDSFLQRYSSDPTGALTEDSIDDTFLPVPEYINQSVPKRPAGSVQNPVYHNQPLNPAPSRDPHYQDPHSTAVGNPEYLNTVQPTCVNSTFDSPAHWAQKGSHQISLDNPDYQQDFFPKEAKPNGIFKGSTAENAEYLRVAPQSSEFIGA
Receptor tyrosine-protein kinase erbB-2, sequence (P04626 whole entry): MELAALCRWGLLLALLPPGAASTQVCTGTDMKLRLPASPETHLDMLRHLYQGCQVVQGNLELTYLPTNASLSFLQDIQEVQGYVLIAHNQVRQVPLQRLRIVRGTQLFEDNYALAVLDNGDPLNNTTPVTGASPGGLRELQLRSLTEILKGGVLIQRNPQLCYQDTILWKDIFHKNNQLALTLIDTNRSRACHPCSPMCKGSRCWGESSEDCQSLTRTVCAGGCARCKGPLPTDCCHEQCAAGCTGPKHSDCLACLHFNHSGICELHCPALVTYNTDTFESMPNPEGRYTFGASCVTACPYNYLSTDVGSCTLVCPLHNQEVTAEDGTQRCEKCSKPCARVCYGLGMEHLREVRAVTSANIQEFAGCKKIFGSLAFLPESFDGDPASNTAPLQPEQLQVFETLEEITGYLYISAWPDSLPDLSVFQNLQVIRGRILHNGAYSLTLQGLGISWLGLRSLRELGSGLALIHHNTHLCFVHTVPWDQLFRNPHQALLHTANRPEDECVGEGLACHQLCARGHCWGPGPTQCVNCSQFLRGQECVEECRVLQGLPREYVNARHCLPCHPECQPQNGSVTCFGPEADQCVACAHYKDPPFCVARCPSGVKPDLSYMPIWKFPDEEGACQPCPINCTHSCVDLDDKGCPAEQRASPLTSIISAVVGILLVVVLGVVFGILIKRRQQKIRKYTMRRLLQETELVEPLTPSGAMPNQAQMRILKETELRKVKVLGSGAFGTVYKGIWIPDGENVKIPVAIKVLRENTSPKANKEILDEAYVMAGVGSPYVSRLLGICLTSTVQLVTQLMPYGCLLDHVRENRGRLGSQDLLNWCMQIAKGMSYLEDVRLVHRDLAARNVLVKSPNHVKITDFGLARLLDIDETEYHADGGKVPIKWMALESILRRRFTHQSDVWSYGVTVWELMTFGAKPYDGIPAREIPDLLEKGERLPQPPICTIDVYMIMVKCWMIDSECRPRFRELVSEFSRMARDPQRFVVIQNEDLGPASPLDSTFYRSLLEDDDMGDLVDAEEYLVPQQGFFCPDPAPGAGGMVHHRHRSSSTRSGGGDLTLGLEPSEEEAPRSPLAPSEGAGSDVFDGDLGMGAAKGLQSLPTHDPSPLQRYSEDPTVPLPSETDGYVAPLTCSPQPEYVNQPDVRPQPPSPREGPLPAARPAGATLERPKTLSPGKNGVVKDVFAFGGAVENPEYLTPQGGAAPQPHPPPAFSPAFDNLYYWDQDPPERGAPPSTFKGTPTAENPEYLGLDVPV

| SMILES | IC50 (MCF7) | IC50 (A549) | IC50 [1] | IC50 (SK-BR-3) | IC50 (MDA-MB-231) | inhibition [2] | IC50 [3] | IC50 [4] | IC50 [5] | IC50 [6] | IC50 [7] |
| --- | --- | --- | --- | --- | --- | --- | --- | --- | --- | --- | --- |
| CC(Nc1ncnc2ncc(-c3cnn(C)c3)cc12)c1c(Cl)ccc(F)c1Cl (stereo not drawn) | > 100 µM | > 100 µM | > 100 µM | > 100 µM | > 100 µM | 9% | – | – | – | – | – |
| COc1cccc(CNc2ncnc3ccc(-c4cnn(C)c4)cc23)c1 | 40 µM | 48.9 µM | 30.4 µM | 36 µM | 28.5 µM | 67% | – | – | – | – | – |
| c1cnc2ccc(Nc3ncnc4ccc(-c5cnn(C6CCNCC6)c5)cc34)cc2c1 | 61.9 µM | 32 µM | 12.8 µM | 2.66 µM | 30.3 µM | 96% | 0.0282 µM | 0.035 µM | > 1 µM | 1.35 µM | 1.1 µM |
| CC(Nc1nc(N)nc2ccc(-c3cnn(C4CCNCC4)c3)cc12)c1c(Cl)ccc(F)c1Cl (stereo not drawn) | 2.23 µM | 8.8 µM | 5.1 µM | 1.58 µM | 4.48 µM | 17% | – | – | – | – | – |
| Cn1cc(-c2ccc3ncnc(Nc4ccc5ncccc5c4)c3c2)cn1 | 0.49 µM | 1.38 µM | 10.9 µM | 0.064 µM | 26.3 µM | 101% | 0.0441 µM | 0.108 µM | > 1 µM | 0.874 µM | 0.93 µM |
| C#Cc1cccc(Nc2ncnc3ccc(-c4cnn(C)c4)cc23)c1 | 11.4 µM | 9.86 µM | 5.68 µM | 5.87 µM | 16.9 µM | 102% | 0.00358 µM | 0.00425 µM | > 1 µM | 0.59 µM | 0.782 µM |
| Cn1cc(-c2ccc3ncnc(Nc4ccc(F)c(Cl)c4)c3c2)cn1 | 52.2 µM | > 100 µM | 5.26 µM | 3.1 µM | 62.6 µM | 101% | 0.00297 µM | 0.0035 µM | > 1 µM | 0.676 µM | 0.801 µM |
| Cn1cc(-c2cnc3ncnc(NCc4cccc([N+](=O)[O-])c4)c3c2)cn1 | > 100 µM | > 100 µM | > 100 µM | > 100 µM | > 100 µM | 30% | – | – | – | – | – |
| CC(Oc1ncnc2ccc(-c3cnn(C)c3)cc12)c1c(Cl)ccc(F)c1Cl (stereo not drawn) | 22.6 µM | 28.8 µM | 45.6 µM | 27.2 µM | 30 µM | 11% | – | – | – | – | – |
| CC(Oc1nc(N)nc2ccc(-c3cnn(C4CCNCC4)c3)cc12)c1c(Cl)ccc(F)c1Cl (stereo not drawn) | 1.24 µM | 9.49 µM | 3 µM | 7.12 µM | 7 µM | 7% | – | – | – | – | – |
| CC(Nc1ncnc2ncc(-c3cnn(C)c3)cc12)c1ccncc1 (stereo not drawn) | > 100 µM | > 100 µM | > 100 µM | > 100 µM | > 100 µM | 0% | – | – | – | – | – |
| CC(Nc1nc(N)nc2ccc(-c3cnn(C)c3)cc12)c1c(Cl)ccc(F)c1Cl (stereo not drawn) | 2.87 µM | > 100 µM | 7.12 µM | 7.14 µM | 7.96 µM | 12% | – | – | – | – | – |
| Fc1ccc(Nc2ncnc3ccc(-c4cnn(C5CCNCC5)c4)cc23)cc1Cl | 31.3 µM | 29.4 µM | 15.2 µM | 3.74 µM | 28.4 µM | 99% | 0.0319 µM | 0.0391 µM | > 1 µM | 1.2 µM | 1.6 µM |
| CC(Nc1ncnc2ccc(-c3cnn(C4CCNCC4)c3)cc12)c1c(Cl)ccc(F)c1Cl (stereo not drawn) | 2.65 µM | 7 µM | 8.13 µM | 4.39 µM | 12.6 µM | 61% | – | – | – | – | – |
| Cn1cc(-c2ccc3ncnc(Oc4ccc5ncccc5c4)c3c2)cn1 | 22 µM | 26.6 µM | 24.3 µM | 14.4 µM | 16.5 µM | 43% | – | – | – | – | – |
| COc1cccc(CNc2ncnc3ncc(-c4cnn(C)c4)cc23)c1 | > 100 µM | > 100 µM | > 100 µM | > 100 µM | > 100 µM | 18% | – | – | – | – | – |
| CC(Oc1ncnc2ccc(-c3cnn(C4CCNCC4)c3)cc12)c1c(Cl)ccc(F)c1Cl (stereo not drawn) | 2.67 µM | 6.75 µM | 4.14 µM | 2.5 µM | 6.77 µM | 52% | – | – | – | – | – |
| CC(Nc1ncnc2ncc(-c3cnn(C4CCNCC4)c3)cc12)c1c(Cl)ccc(F)c1Cl (stereo not drawn) | 1.63 µM | 29.7 µM | 13.5 µM | 17.7 µM | 7.11 µM | 17% | – | – | – | – | – |
